From publication PMC7436059, “Synthesis, Characterization, Photoluminescence, Molecular Docking and Bioactivity of Zinc (II) Compounds Based on Different Substituents” (Molecules, 2020) come the findings set out here.

By IC50 is commonly meant the midpoint of a concentration-inhibition curve. The low end stands for greater potency, the high end for weaker potency.

For assay [1], the system named is human hepatocellular carcinoma cell line (Bel-7402). Description: CCK-8 antiproliferative assay, Bel-7402. The format is cell-based. The note with it: Bel-7042, CCK-8, 72 h incubation. An excerpt: (§1) The in vitro antiproliferative properties of complexes 1–6 against Eca-109, A549 and Bel-7402 tumor lines were examined by employing the CCK-8 assay with cisplatin as a positive control. […] It is interesting that the different cells respond distinctively to these complexes. The complexes display remarkable cytotoxicity against Eca-109 in comparison to A549 and Bel-7402. […] Compared with that of zinc chloride complexes, the antiproliferative activity of these complexes is stronger. This activity of the bromide complexes follows the order of 1 > 3 > 5 and that of the iodide complexes is 2 > 4 > 6. […] It is worth mentioning that, among these compounds, the order of the activity is consistent with the electronegativity values (methylsulfonyl (−2.96) < methoxy (−2.86) < methyl (−2.28) of the substituents.
(§2) In this assay, human esophageal cancer cell line (Eca-109), human lung cancer cell line (A549), human hepatocellular carcinoma cell line (Bel-7402) and mouse monocyte macrophage (RAW264.7) were used to evaluate the antiproliferative activities or cytotoxicity in vitro by CCK-8 assay for determining cell viability with cisplatin as the positive control. All the cells are purchased from the American Type Culture Collection (Manassas, VA, USA). The cells were cultured in 100 µL complete DMEM growth media containing 10% FBS and 1% PS. First, 3000 cells were added to 96-well plates and were cultured overnight in a humidified atmosphere at 37 °C with 5% CO2. Then, complexes 1–6 and cisplatin were diluted with complete DMEM growth media to obtain the working concentration, which was added to the tissue culture plate and incubated for 72 h. The CCK-8 solution was added to each well. After 3 h incubation, the absorbance of each well at 490 nm was measured using an enzyme labeling instrument (Tecan, Grödig, Salzburg, Austrla). Cell morphology was measured and imaged by an inverted microscope (Nikon eclipses TS100, Tokyo, Japan) and a Nikon digital camera (Tokyo, Japan). The 50% inhibitive concentration (IC50) was calculated by Graph Pad Prism 5.0 (San Diego, CA, USA).
In general terms: Tetrazolium assays rely on reduction of a dye to a coloured formazan, in cell work by metabolically active cells.

For assay [2], the target named is T1, BSA (Bos taurus, UniProt P02769).
T1 construct: purchased Asbio
T1 sequence (P02769 25-607): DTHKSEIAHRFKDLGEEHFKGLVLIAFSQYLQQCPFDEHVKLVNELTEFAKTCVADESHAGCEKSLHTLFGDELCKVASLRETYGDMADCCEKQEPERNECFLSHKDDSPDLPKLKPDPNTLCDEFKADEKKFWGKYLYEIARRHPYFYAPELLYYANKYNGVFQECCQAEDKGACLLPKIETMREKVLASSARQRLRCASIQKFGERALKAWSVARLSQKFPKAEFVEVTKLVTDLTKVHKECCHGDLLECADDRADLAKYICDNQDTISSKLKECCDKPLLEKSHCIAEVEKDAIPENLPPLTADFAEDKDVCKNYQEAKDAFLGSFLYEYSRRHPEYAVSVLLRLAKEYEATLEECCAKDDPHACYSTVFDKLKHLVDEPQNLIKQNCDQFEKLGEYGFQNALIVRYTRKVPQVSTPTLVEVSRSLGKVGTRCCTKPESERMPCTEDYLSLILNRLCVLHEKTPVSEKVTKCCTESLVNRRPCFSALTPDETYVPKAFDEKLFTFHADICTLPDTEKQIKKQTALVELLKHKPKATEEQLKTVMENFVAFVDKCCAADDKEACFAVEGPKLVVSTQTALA
Kind of assay: BSA fluorescence quenching titration (Stern-Volmer, Scatchard). Conditions: 1.6 μM BSA, Tris-HCl buffer; for Ksv (Stern-Volmer quenching constant): excitation 280 nm; for n (binding site number): Scatchard equation; for Kq (quenching rate constant): τ0 = 10^−8 s. The assay is classed as binding, bovine. An excerpt: The structure and transmission characteristics of BSA are similar to HSA [36]. BSA was used instead of HSA for drug delivery due to its ease to purify and stability. The binding of metal complexes to proteins was studied by fluorescence spectrum titration. Endogenous fluorescence of BSA comes from residues as tryptophan (Trp), tyrosine (Tyr) and phenylalanine (Phe), and conformational changes of BSA-binding metal complexes are obtained by observing the fluorescence of Trp residues at 350 nm. […] The same phenomenon occurs for the other compounds (shown in Figure S22, Supplementary Materials). […] This appearance may be due to a resonant energy transfer. […] The Stern–Volmer equation [37] (Equation (1)) was used to study the quenching mechanism of BSA and the complexes:I0/I = 1 + Kqτ0[Q] = 1 + Ksv[Q](1) where the fluorescence intensity of the protein is expressed by I0 and I in absence and in presence of quencher, respectively; Ksv is the Stern–Volmer quenching rate constant; Kq is the quenching rate constant; and τ0 and [Q] represent the lifetime of fluorescent molecule in absence of quencher (valued 10^−8 s) and quencher concentration, respectively. The maximum causing a value of dynamic quenching in biopolymers is 2 × 10^10 M^−1 S^−1 [23].
Calculation of the binding constants (Kb) was achieved according to the Scatchard equation [38] (Equation (2)):log [(I0 − I)/I] = logKb + nlog[Q](2) where Kb and n represent the binding constant and the binding site number, respectively. The binding constants Kb and the binding site number were obtained from the intercept and slope of the double logarithm regression plot between log [(I0 − I)/I] and log [Q]. The binding constant (>104 L mol^−1) was obtained under the condition of high binding affinity. […] It can be seen in Figure 7 that the absorption spectra of the complexes partially overlap with the […] spectrum of BSA.
Bovine serum albumin (BSA) was dissolved in a Tris-HCl buffer (pH = 7.4) solution to prepare a 1.6 × 10^−6 M BSA solution. The protein concentration was measured by spectrophotometry at 280 nm with the extinction coefficient of 44,300 M^−1 cm^−1. Stock solutions of complexes 1–6 (1 × 10^−2 M) were prepared in DMSO. The emission spectrum (300–600 nm) of BSA was monitored at the excitation wavelength of 280 nm.

Assay [3] has as its system human esophageal cancer cell line (Eca-109). Kind of assay: CCK-8 antiproliferative assay, Eca-109. The format is cell-based. The note with it: Eca-109, CCK-8, 72 h incubation.
Excerpt: as §1, §2

Assay [4] deals with human lung cancer cell line (A549). Kind of assay: CCK-8 antiproliferative assay, A549. The assay is classed as cell-based. Conditions: A549, CCK-8, 72 h incubation.
Excerpt: as §1, §2

On to `Cc1ccc(-c2cc(-c3ccccn3)nc(-c3ccccn3)c2)cc1.[Br][Zn][Br]` [Compound 5, [ZnBr2L^3]], for which the IC50 in assay [1] was 616 nM. In assay [2], the “Ksv (Stern-Volmer quenching constant)” value amounted to 46300 M⁻¹, the “n (binding site number)” value was found to be 0.87 and the Kq (quenching rate constant) came out at 4.63e+12 M⁻¹ s⁻¹. In assay [3], this compound came in with an IC50 of 197 nM. Besides, 748 nM corresponded to half-maximal inhibition in assay [4] (IC50).
Take `CS(=O)(=O)c1ccc(-c2cc(-c3ccccn3)nc(-c3ccccn3)c2)cc1.[I][Zn][I]` [Compound 2, [ZnI2L^1]]: in assay [1], the IC50 was 331 nM. In assay [2], the “Ksv (Stern-Volmer quenching constant)” value was 176000 M⁻¹, the “n (binding site number)” value is on record as 0.83 and the Kq (quenching rate constant) was determined as 1.76e+13 M⁻¹ s⁻¹. The compound further gave a concentration for half-maximal inhibition (IC50) in assay [3] of 66 nM. Besides, the IC50 in assay [4] was 290 nM.
On to `N.N.[Cl][Pt][Cl]` [cisplatin, reference compound], for which the IC50 was found to be 3090 nM in assay [1], 5460 nM in assay [3] and 12000 nM in assay [4].
For `Cc1ccc(-c2cc(-c3ccccn3)nc(-c3ccccn3)c2)cc1.[I][Zn][I]` [Compound 6, [ZnI2L^3]], in assay [2], the “Ksv (Stern-Volmer quenching constant)” value worked out at 76700 M⁻¹, the “n (binding site number)” value is 0.89 and the Kq (quenching rate constant) was 7.67e+12 M⁻¹ s⁻¹. Further, in assay [3], half-maximal inhibition (IC50) was put at 146 nM. Besides, the IC50 in assay [4] came out at 945 nM.
The compound `COc1ccc(-c2cc(-c3ccccn3)nc(-c3ccccn3)c2)cc1.[Br][Zn][Br]` [Compound 3, [ZnBr2L^2]] yielded an IC50 in assay [1] of 414 nM. Moreover, in assay [2], the “Ksv (Stern-Volmer quenching constant)” value was found to be 115000 M⁻¹, the “n (binding site number)” value was found to be 1.07 and the Kq (quenching rate constant) came to 1.15e+13 M⁻¹ s⁻¹. Half-maximal inhibition in assay [3] (IC50) required 169 nM. The same compound came in with an IC50 in assay [4] of 482 nM.
As for `COc1ccc(-c2cc(-c3ccccn3)nc(-c3ccccn3)c2)cc1.[I][Zn][I]` [Compound 4, [ZnI2L^2]], the IC50 in assay [1] came to 397 nM. In assay [2], the “Ksv (Stern-Volmer quenching constant)” value was determined as 163000 M⁻¹, the “n (binding site number)” value worked out at 1.08 and the Kq (quenching rate constant) is 1.63e+13 M⁻¹ s⁻¹. Further, the IC50 in assay [3] was found to be 75 nM. In assay [4], this compound came in with a half-maximal inhibitory concentration (IC50) of 307 nM.
In assay [1], `CS(=O)(=O)c1ccc(-c2cc(-c3ccccn3)nc(-c3ccccn3)c2)cc1.[Br][Zn][Br]` [Compound 1, [ZnBr2L^1]] yielded an IC50 of 358 nM. In assay [2], the “Ksv (Stern-Volmer quenching constant)” value turned out to be 176000 M⁻¹, the “n (binding site number)” value is 0.72 and the Kq (quenching rate constant) came out at 1.76e+13 M⁻¹ s⁻¹. This compound also displayed an IC50 in assay [3] of 79 nM.
